This test relates to 293T cells stably expressing split RL reporters. Description: Cell Titer-Blue cell proliferation assay. The format is cell-based. As to conditions: Homo sapiens, HEK-293T. As for the experimental part:
Inhibition of cell proliferation at 20 μM was determined by cell-titer blue assays and toxic compounds were eliminated. The IC50 values for inhibition of bioluminescence signals (BLI) in cells stably expressing Hsp90(α/β)/p23 split RL reporters and the inhibition of cell proliferation for the top 19 compounds are shown in Table 1, Example 15, and their structures are shown in FIGS. 1A-1D.
Baseline complemented RL activities were determined 90 mins after addition of 20 μl of ENDUREN® (10 μM final concentration) (Promega, Madison, Wis.) using the Analyst GT (Molecular Device, Sunnyvale, Calif.), with an acquisition time of 0.2 sec per well. Cells were incubated with compounds for 24 h prior to re-determination of complemented RL activities, and normalized to the mean RL activities of untreated cells in columns 1-2. Another small molecule chemical library with 30,176 compounds (SPECS, Wakefield, R.I.) was also used in screening modulators of Hsp90(α/β)/p23 inhibitors (at 8.3 μM, one drug per well for initial screening). For dose response/confirmation assay the compounds were tested in duplicate in an 8 point (0.156-20 μM) dose response assay for RL activities for both Hps90(α/β)/p23 interactions. The effect of each compound on cell proliferation at 20 μM was determined using Cell Titer-Blue assay in duplicate wells. […]
On the technique in general: Resazurin is reduced to fluorescent resorufin, in cell work by metabolically active cells.

Molecules are shown by their SMILES.

One may read the inhibition as the share of the control response that was lost under treatment. Read a low inhibition as a response near the control. Compound `Cc1cc(NC(=O)CSc2nc(-c3cccs3)cc(C(F)(F)F)n2)no1` [CP9, N-(5-methylisoxazol-3-yl)-2-(4-(thiophen-2-yl)-6-(trifluoromethyl)pyrimidin-2-ylthio)acetamide] showed an inhibition at 20 µM of 29%.

(Values after patent publication US20130310347A1, “MULTI-MODALITY MOLECULAR IMAGING HIGH-THROUGHPUT ASSAY FOR IDENTIFYING HEAT SHOCK PROTEIN 90 (HSP90) INHIBITORS” (The Board of Trustees of the Leland Stanford Junior …, priority 2012, published 2013).)
